Assay results as given in patent publication US8530493B2, “Indolopyridines as Eg5 kinesin modulators” (4SC AG, priority 2006, dated 2013).

Experiments:
[1] = test system: RKO p27 or p21 uninduced (proliferating) colon adenocarcinoma cells; assay: Alamar Blue cell viability assay, RKO p27 or p21 uninduced (proliferating); assay type: cell-based; conditions: Homo sapiens, RKOp27, 72 h, Table B2, anti-proliferative/cytotoxic activity, read-out: −log EC50 RKO p27 or p21 uninduced (proliferating) (converted)
Summary of the method: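 Viability read by Alamar Blue fluorescence (ex 544, em 590 nm), normalised to untreated wells, after 72 h, 37° C, 5% CO2 compound exposure in triplicate. Cells were uninduced (no Ponasterone A), proliferating RKO colon carcinoma p27 or p21 subclones in DMEM with 10% FCS; values are −log EC50 (mol/l).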

[2] = test system: RKO p27 or p21 induced (arrested) colon adenocarcinoma cells; assay: Alamar Blue cell viability assay, RKO p27 or p21 induced (arrested); assay type: cell-based; conditions: Homo sapiens, RKOp27, Table B2, cells arrested by Ponasterone A, 72 hours, read-out: −log EC50 RKO p27 or p21 induced (arrested) (converted)
Summary of the method: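 RKOp21 or RKOp27 subclones in DMEM/10% FCS with 10 μM Ponasterone A to induce p21/p27 arrest, seeded 24 h before compound; triplicate 72 h exposure at 37 °C. Alamar Blue fluorescence (544/590 nm) as % of untreated (1% DMSO) cells; EC50 from dose-response curves, reported as −log EC50 (mol/l).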

SMILES | EC50 [1] [nM] | EC50 [2] [nM]
COc1ccc2[nH]c3c(c2c1)C[C@@]1(C)C(=O)N(CCN2CCCCCC2)C(=O)N1[C@@H]3c1cccc(O)c1 (racemic) [Example 74, (3aSR,10RS)-2-(2-Azepan-1-yl-ethyl)-10-(3-hydroxy-phenyl)-6-methoxy-3a-methyl-3a,4,9,10-tetrahydro-2,9,10a-triaza-cyclopenta[b]fluorene-1,3-dione] | ≤ 39.8 | ≥ 3160
CCNCCCN1C(=O)N2[C@H](c3cccc(O)c3)c3[nH]c4ccc(Cl)cc4c3C[C@@]2(C)C1=O (racemic) [Example 131, (3aSR,10RS)-6-Chloro-2-(3-ethylamino-propyl)-10-(3-hydroxy-phenyl)-3a-methyl-3a,4,9,10-tetrahydro-2,9,10a-triaza-cyclopenta[b]fluorene-1,3-dione] | ≤ 39.8 | ≥ 316
C#CC(C)NCCCN1C(=O)N2[C@H](c3cccc(O)c3)c3[nH]c4ccc(Cl)cc4c3C[C@@]2(C)C1=O (mixture of isomers) [Example 136, (3aSR,10RS)-6-Chloro-10-(3-hydroxy-phenyl)-3a-methyl-2-[3-((R and S)1-methyl-prop-2-ynylamino)-propyl]-3a,4,9,10-tetrahydro-2,9,10a-triaza-cyclopenta[b]fluorene-1,3-dione] | ≤ 39.8 | ≥ 3160
C#CCN(C)CCN1C(=O)N2[C@H](c3cccc(O)c3)c3[nH]c4ccc(OC)cc4c3C[C@@]2(C)C1=O (racemic) [Example 81, (3aSR,10RS)-10-(3-Hydroxy-phenyl)-6-methoxy-3a-methyl-2-[2-(methyl-prop-2-ynyl-amino)-ethyl]-3a,4,9,10-tetrahydro-2,9,10a-triaza-cyclopenta[b]fluorene-1,3-dione] | ≤ 39.8 | ≥ 3160
C=CCNCCN1C(=O)N2[C@H](c3cccc(O)c3)c3[nH]c4ccc(Cl)cc4c3C[C@@]2(C)C1=O (racemic) [Example 115, (3aSR,10RS)-2-(2-Allylamino-ethyl)-6-chloro-10-(3-hydroxy-phenyl)-3a-methyl-3a,4,9,10-tetrahydro-2,9,10a-triaza-cyclopenta[b]fluorene-1,3-dione] | ≤ 39.8 | ≥ 316
COc1ccc2[nH]c3c(c2c1)C[C@@]1(C)C(=O)N(CCCNCCO)C(=O)N1[C@@H]3c1cccc(O)c1 (racemic) [Example 145, (3aSR,10RS)-2-[3-(2-Hydroxy-ethylamino)-propyl]-10-(3-hydroxy-phenyl)-6-methoxy-3a-methyl-3a,4,9,10-tetrahydro-2,9,10a-triaza-cyclopenta[b]fluorene-1,3-dione] | ≤ 39.8 | ≥ 316
COc1ccc2[nH]c3c(c2c1)C[C@@]1(C)C(=O)N(CCCN2CCOCC2)C(=O)N1[C@@H]3c1cccc(O)c1 (racemic) [Example 148, (3aSR,10RS)-10-(3-Hydroxy-phenyl)-6-methoxy-3a-methyl-2-(3-morpholin-4-yl-propyl)-3a,4,9,10-tetrahydro-2,9,10a-triaza-cyclopenta[b]fluorene-1,3-dione] | ≤ 39.8 | ≥ 316
C=CCN(C)CCN1C(=O)N2[C@H](c3cccc(O)c3)c3[nH]c4ccc(Cl)cc4c3C[C@@]2(C)C1=O (racemic) [Example 117, (3aSR,10RS)-2-[2-(Allyl-methyl-amino)-ethyl]-6-chloro-10-(3-hydroxy-phenyl)-3a-methyl-3a,4,9,10-tetrahydro-2,9,10a-triaza-cyclopenta[b]fluorene-1,3-dione] | ≤ 39.8 | ≥ 316
C[C@@]12Cc3c([nH]c4ccc(Cl)cc34)[C@@H](c3cccc(O)c3)N1C(=O)N(CCNC1CCC1)C2=O (racemic) [Example 103, (3aSR,10RS)-6-Chloro-2-(2-cyclobutylamino-ethyl)-10-(3-hydroxy-phenyl)-3a-methyl-3a,4,9,10-tetrahydro-2,9,10a-triaza-cyclopenta[b]fluorene-1,3-dione] | ≤ 39.8 | ≥ 3160
COc1ccc2[nH]c3c(c2c1)C[C@@]1(C)C(=O)N(CCCNCC2CC2)C(=O)N1[C@@H]3c1cccc(O)c1 (racemic) [Example 95, (3aSR,10RS)-2-[3-(Cyclopropylmethyl-amino)-propyl]-10-(3-hydroxy-phenyl)-6-methoxy-3a-methyl-3a,4,9,10-tetrahydro-2,9,10a-triaza-cyclopenta[b]fluorene-1,3-dione] | ≤ 39.8 | ≥ 3160
C[C@@]12Cc3c([nH]c4ccc(Cl)cc34)[C@@H](c3cccc(O)c3)N1C(=O)N(CCN1CCCCCC1)C2=O (racemic) [Example 104, (3aSR,10RS)-2-(2-Azepan-1-yl-ethyl)-6-chloro-10-(3-hydroxy-phenyl)-3a-methyl-3a,4,9,10-tetrahydro-2,9,10a-triaza-cyclopenta[b]fluorene-1,3-dione] | ≤ 39.8 | ≥ 3160
